± gives the expanded uncertainty stated by the source.
Assays:
[1] = 100 kPa, Liquid; for speed of sound: Frequency=3 MHz, Sing-around technique in a fixed-path interferometer; for mass density: Vibrating tube method
[2] = refractive index (Na D-line) (dimensionless); details: 100 kPa, Liquid, Standard Abbe refractometry
[3] = xn = mol fraction of the nth substance listed; details: 100 kPa, Liquid, x1 = 1; for speed of sound: Frequency=3 MHz, Sing-around technique in a fixed-path interferometer; for mass density: Vibrating tube method
[4] = refractive index (Na D-line) (dimensionless); xn = mol fraction of the nth substance listed; details: 100 kPa, Liquid, Standard Abbe refractometry, x1 = 1

Nc1ccccc1 [aniline]
Details | mass density, [1] [kg/m3] | refractive index, [2] | speed of sound, [1] [m/s]
298.15 K | 1017.1 ± 1 | 1.5826 ± 0.0016 | 1636.8 ± 1.5
303.15 K | 1012.7 ± 1 | 1.5793 ± 0.0016 | 1617.5 ± 1.5
308.15 K | 1008.4 ± 1 | 1.576 ± 0.0016 | 1598.3 ± 1.5
313.15 K | 1004.1 ± 1 | 1.5727 ± 0.0016 | 1579.1 ± 1.5
318.15 K | 999.7 ± 1 | 1.5694 ± 0.0016 | 1560 ± 1.5
323.15 K | 995.4 ± 1 | 1.5661 ± 0.0016 | 1540.9 ± 1.5

O=Cc1ccccc1 [benzaldehyde]
Details | mass density, [1] [kg/m3] | refractive index, [2] | speed of sound, [1] [m/s]
298.15 K | 1041 ± 1 | 1.541 ± 0.0016 | 1457.3 ± 1.6
303.15 K | 1036.5 ± 1 | 1.5383 ± 0.0016 | 1438.9 ± 1.6
308.15 K | 1032 ± 1 | 1.5357 ± 0.0016 | 1420.6 ± 1.6
313.15 K | 1027.5 ± 1 | 1.5332 ± 0.0016 | 1402.4 ± 1.6
318.15 K | 1023 ± 1 | 1.5307 ± 0.0016 | 1384.4 ± 1.6
323.15 K | 1018.4 ± 1 | 1.5282 ± 0.0016 | 1366.4 ± 1.6

N#Cc1ccccc1 [benzonitrile]
Details | mass density, [1] [kg/m3] | refractive index, [2] | speed of sound, [1] [m/s]
298.15 K | 1000.6 ± 1 | 1.526 ± 0.0016 | 1415.6 ± 1.5
303.15 K | 995.9 ± 1 | 1.5235 ± 0.0016 | 1398.1 ± 1.5
308.15 K | 991.4 ± 1 | 1.5209 ± 0.0016 | 1380.8 ± 1.5
313.15 K | 986.9 ± 1 | 1.5184 ± 0.0016 | 1363.6 ± 1.5
318.15 K | 982.5 ± 1 | 1.5158 ± 0.0016 | 1346.5 ± 1.5
323.15 K | 977.9 ± 1 | 1.5133 ± 0.0016 | 1329.5 ± 1.5

CCOC(=O)OCC [diethyl carbonate]
Details | mass density, [1] [kg/m3] | refractive index, [2] | speed of sound, [1] [m/s]
298.15 K | 969.1 ± 1 | 1.3825 ± 0.0016 | 1177.5 ± 1.6
303.15 K | 963.5 ± 1 | 1.3802 ± 0.0016 | 1156.9 ± 1.6
308.15 K | 957.8 ± 1 | 1.3779 ± 0.0016 | 1136.6 ± 1.5
313.15 K | 952.1 ± 1 | 1.3756 ± 0.0016 | 1116.5 ± 1.5
318.15 K | 946.4 ± 1 | 1.3733 ± 0.0016 | 1096.5 ± 1.5
323.15 K | 940.7 ± 1 | 1.371 ± 0.0016 | 1076.7 ± 1.5

CCOC(=O)OCC [diethyl carbonate] + N#Cc1ccccc1
Details | mass density, [3] [kg/m3] | refractive index, [4] | speed of sound, [3] [m/s]
298.15 K | 969.1 ± 1 | 1.3825 ± 0.0016 | 1177.5 ± 1.6
303.15 K | 963.5 ± 1 | 1.3802 ± 0.0016 | 1156.9 ± 1.6
308.15 K | 957.8 ± 1 | 1.3779 ± 0.0016 | 1136.6 ± 1.5
313.15 K | 952.1 ± 1 | 1.3756 ± 0.0016 | 1116.5 ± 1.5
318.15 K | 946.4 ± 1 | 1.3733 ± 0.0016 | 1096.5 ± 1.5
323.15 K | 940.7 ± 1 | 1.371 ± 0.0016 | 1076.7 ± 1.5

CCOC(=O)OCC [diethyl carbonate] + Nc1ccccc1
Details | mass density, [3] [kg/m3] | refractive index, [4] | speed of sound, [3] [m/s]
298.15 K | 969.1 ± 1 | 1.3825 ± 0.0016 | 1177.5 ± 1.6
303.15 K | 963.5 ± 1 | 1.3802 ± 0.0016 | 1156.9 ± 1.6
308.15 K | 957.8 ± 1 | 1.3779 ± 0.0016 | 1136.6 ± 1.5
313.15 K | 952.1 ± 1 | 1.3756 ± 0.0016 | 1116.5 ± 1.5
318.15 K | 946.4 ± 1 | 1.3733 ± 0.0016 | 1096.5 ± 1.5
323.15 K | 940.7 ± 1 | 1.371 ± 0.0016 | 1076.7 ± 1.5

CCOC(=O)OCC [diethyl carbonate] + O=Cc1ccccc1
Details | mass density, [3] [kg/m3] | refractive index, [4] | speed of sound, [3] [m/s]
298.15 K | 969.1 ± 1 | 1.3825 ± 0.0016 | 1177.5 ± 1.6
303.15 K | 963.5 ± 1 | 1.3802 ± 0.0016 | 1156.9 ± 1.6
308.15 K | 957.8 ± 1 | 1.3779 ± 0.0016 | 1136.6 ± 1.5
313.15 K | 952.1 ± 1 | 1.3756 ± 0.0016 | 1116.5 ± 1.5
318.15 K | 946.4 ± 1 | 1.3733 ± 0.0016 | 1096.5 ± 1.5
323.15 K | 940.7 ± 1 | 1.371 ± 0.0016 | 1076.7 ± 1.5
